Assay results taken from US5214040A, “Nonsaditive antihistaminics derived from benzimidazoles” (Laboratorios del Dr. Esteve, S.A., priority 1991, dated 1993).

How the values were obtained:
[1] = Sedative effect: potentiation of pentobarbital-induced duration of sleep; details: for potentiation of pentobarbital-induced duration of sleep (in words): orally; for Potentiation of duration of sleep: p.o., vs control group with pentobarbital 35 mg/kg, s.c.
Method: The studied products were administered orally. […] The duration of sleep was compared with a control group of animals treated only with sodium pentobarbital.

rats = assay: Sedative effect: Irwin test (behaviour of rats); format: in vivo; details: i.p.; for Atax. (ataxia) / pas. (passivity, sedation, prostration): score 0 to 3, 1, 2 and 3 hours after treatment
Method: Pas.: Passivity, sedation, prostration. Quantitative evaluation between 0 and 3. They are performed 1, 2 and 3 hours after the treatment.
Atax.: Ataxia, the modifications of coordination in movement are evaluated. The are evaluated between 0 and 3. They are performed 1, 2 and 3 hours after the treatment.

[2] = tested on: 48/80-induced death in rats; assay: Protection against mortality caused by compound 48/80 in rats (antihistaminic activity in vivo); details: Rattus norvegicus, ip, 60 min before 48/80 (0.5 mg/kg, i.v.), survival 4 hours after, read-out: ED-50 (protection from 48/80-induced death)
Method: The antihistaminic activity was studied by determining the protection against the mortality caused by the product 48/80 in rats. This trial was performed according to the technique described by C.
The activity of the products is studied at several doses in order to determine the dose which is capable of protecting 50% of the animals (ED-50).
Finally, the antihistaminic activity of the product of Example 1 is indicated.

| Structure (SMILES) | potentiation of pentobarbital-induced duration of sleep (in words) ([1]; at a dose of 20 mg/kg) | Atax. (ataxia) (rats; dose 40 mg/kg) | pas. (passivity, sedation, prostration) (rats; dose 40 mg/kg) | ED50 [2] [mg/kg] | Potentiation of duration of sleep ([1]; dose 80 mg/kg) [%] | Potentiation of duration of sleep ([1]; dose 160 mg/kg) [%] | potentiation of pentobarbital-induced duration of sleep (in words) ([1]; even at 160 mg/kg, the maximum dose tested) | sedative effect (in words) (rats; Irwin test, rats) | Atax. (ataxia) (rats; dose 80 mg/kg) | pas. (passivity, sedation, prostration) (rats; dose 80 mg/kg) |
| --- | --- | --- | --- | --- | --- | --- | --- | --- | --- | --- |
| CN(C)CCOC(c1ccccc1)c1ccccc1 [Difenhidramine, reference compound] | significantly potentiates | 0.9 | 0 | 5.4 |  |  |  |  |  |  |
| CCOCCn1c(CN2CCCN(CCCCn3cccn3)CC2)nc2ccccc21 [Example 1, 1-(2-ethoxyethyl)-2-{4-[4-(pyrazol-1-yl)butyl]homopiperazin-1-ylmethyl}benzimidazole] |  |  |  | 0.04 | 8 | 1 | does not potentiate | very weak sedative effect | 0.2 | 0 |
